This passage reports IC50 results from US6348477B1, “Anti-herpesvirus compounds and methods for identifying, making and using same” (Boehringer Ingelheim(Canada) Ltd., priority 1995, dated 2002).

SMILES strings stand for the structures.

The assay has as its target T1, HSV-1 helicase-primase (Human herpesvirus 1, UniProt P10189+P10236).
T1 construct: made in house; host or cells: Sf21 insect cells triply infected with recombinant baculoviruses
Put plainly: HSV-1 DNA-dependent ATPase assay (inhibition of HSV-1 helicase-primase). In kind it is biochemical. To be noted: Group 1 Table 1. The source says: A) HSV-1 DNA-Dependent ATP Assay (an in Vitro Assay Based on the Inhibition of HSV-1 Helicase-primase).
a) Preparation of enzyme: HSV-1 helicase-primase holoenzyme was produced in triply infected Sf21 cells using recombinant baculoviruses expressing the UL5, UL8 and UL52 helicase-primase subunits, as described by S. Dracheva et al., J. Biol. Chem. 1995, 270, 14148. The crude enzyme was purified by ammonium sulfate precipitation, Source 15Q® chromatography and Sephacryl® S-300 HR gel filtration (both purification systems can be obtained from Pharmacia Biotech Inc., Montreal, Quebec, Canada), see S. Dracheva et al., supra.
b) Assay: The DNA-dependent ATPase assay, described by J. J. Crute et al., Nucleic Acids Res. 1988, 16, 6585, was modified and used to evaluate the capability of the compounds of Group 1-formula 1 to inhibit HSV-1 helicase-primase activity. The reaction mixtures (80 μL each) contained 40 mM 4-(2-hydroxyethyl)-1-piperazineethanesulfonic acid (HEPES, pH 7.5), 10% (v/v) glycerol, 5.5 mM MgCl2, 1 mM DL-dithiothreitol (DTT), 50 μg/mL acetylated bovine serum albumin, 3.3% (v/v) DMSO, 4 mM ATP, 25 μM single-stranded M13 DNA hybridized to double-tailed 68-mer oligonucleotide and 3 μg/mL HSV-1 helicase-primase. After incubation for 20 min at 34°, formation of inorganic phosphate from hydrolysis of ATP was monitored spectrophotometrically at 650 nm using acidic ammonium molybdate/malachite green reagent, P. A. Lanzetta et al., Anal. Biochem. 1979, 100, 95. DNA-dependent ATPase activity was calculated from the net absorbance change in the presence and absence of inhibition.

T1 sequence (P10189 whole entry): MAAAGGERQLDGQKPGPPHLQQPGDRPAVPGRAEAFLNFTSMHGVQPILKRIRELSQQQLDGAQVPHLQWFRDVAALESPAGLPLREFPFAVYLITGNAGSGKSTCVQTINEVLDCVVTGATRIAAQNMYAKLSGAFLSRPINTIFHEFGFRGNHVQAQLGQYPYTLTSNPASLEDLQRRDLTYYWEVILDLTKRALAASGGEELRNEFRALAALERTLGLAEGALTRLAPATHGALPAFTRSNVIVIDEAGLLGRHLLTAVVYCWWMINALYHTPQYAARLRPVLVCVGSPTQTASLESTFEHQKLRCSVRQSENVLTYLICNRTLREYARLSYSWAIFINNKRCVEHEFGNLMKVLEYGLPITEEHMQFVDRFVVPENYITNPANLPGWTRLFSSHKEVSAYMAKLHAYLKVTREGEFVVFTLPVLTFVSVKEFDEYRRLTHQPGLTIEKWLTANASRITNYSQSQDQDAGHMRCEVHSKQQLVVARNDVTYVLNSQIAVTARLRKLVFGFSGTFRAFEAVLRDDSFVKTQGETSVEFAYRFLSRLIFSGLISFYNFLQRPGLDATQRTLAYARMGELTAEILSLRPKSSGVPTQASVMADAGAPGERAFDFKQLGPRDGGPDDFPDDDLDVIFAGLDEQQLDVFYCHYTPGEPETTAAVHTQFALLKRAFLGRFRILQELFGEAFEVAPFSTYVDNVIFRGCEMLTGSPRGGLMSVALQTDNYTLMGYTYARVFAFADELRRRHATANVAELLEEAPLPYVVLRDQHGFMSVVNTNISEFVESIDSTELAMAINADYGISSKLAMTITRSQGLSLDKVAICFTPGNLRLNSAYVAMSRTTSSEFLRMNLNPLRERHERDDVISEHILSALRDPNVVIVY
T1 sequence (P10192 whole entry, further chain): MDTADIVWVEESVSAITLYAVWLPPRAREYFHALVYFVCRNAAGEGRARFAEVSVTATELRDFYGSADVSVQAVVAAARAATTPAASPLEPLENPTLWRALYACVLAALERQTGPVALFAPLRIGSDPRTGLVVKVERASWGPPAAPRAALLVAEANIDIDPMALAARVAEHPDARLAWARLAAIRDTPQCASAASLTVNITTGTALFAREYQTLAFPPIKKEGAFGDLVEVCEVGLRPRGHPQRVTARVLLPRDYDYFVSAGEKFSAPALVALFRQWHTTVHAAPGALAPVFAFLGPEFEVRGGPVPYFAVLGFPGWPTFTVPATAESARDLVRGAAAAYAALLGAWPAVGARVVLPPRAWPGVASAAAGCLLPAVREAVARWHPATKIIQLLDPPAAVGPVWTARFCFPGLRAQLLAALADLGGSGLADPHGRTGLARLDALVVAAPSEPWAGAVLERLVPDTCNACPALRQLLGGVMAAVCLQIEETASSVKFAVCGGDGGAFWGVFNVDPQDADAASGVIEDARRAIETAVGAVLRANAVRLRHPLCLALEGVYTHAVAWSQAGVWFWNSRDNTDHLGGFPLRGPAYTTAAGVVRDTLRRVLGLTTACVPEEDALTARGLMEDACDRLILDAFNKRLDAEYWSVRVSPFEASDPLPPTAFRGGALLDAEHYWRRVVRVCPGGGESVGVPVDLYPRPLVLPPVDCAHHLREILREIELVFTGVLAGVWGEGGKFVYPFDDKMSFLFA
T1 sequence (P10236 whole entry): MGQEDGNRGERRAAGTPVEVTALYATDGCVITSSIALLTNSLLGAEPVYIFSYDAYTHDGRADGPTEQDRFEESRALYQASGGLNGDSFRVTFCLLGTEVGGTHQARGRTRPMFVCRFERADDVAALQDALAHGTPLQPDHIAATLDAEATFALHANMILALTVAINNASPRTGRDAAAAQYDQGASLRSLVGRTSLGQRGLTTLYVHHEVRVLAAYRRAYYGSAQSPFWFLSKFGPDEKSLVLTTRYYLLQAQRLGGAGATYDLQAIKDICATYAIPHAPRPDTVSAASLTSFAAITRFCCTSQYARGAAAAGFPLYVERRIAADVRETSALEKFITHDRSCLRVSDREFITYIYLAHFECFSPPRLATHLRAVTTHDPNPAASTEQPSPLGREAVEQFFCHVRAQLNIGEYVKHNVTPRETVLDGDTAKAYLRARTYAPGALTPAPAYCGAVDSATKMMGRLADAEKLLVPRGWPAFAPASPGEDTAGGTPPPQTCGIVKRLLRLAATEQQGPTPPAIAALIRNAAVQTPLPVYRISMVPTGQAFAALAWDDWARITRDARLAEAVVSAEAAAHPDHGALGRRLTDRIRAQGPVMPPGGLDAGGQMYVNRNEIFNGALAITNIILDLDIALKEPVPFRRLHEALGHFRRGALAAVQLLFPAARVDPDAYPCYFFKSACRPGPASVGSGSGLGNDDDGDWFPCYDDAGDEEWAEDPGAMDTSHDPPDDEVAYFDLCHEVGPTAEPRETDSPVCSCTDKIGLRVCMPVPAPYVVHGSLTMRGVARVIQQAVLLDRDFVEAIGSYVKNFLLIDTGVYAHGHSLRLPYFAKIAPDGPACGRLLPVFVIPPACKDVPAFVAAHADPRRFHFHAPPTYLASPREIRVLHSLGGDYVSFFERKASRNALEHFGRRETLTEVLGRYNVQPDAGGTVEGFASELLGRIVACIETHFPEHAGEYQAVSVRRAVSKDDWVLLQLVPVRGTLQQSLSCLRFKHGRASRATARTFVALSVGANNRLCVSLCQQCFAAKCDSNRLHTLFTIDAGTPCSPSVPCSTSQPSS

In general, IC50 refers to the concentration at which inhibition is half-maximal. A higher IC50 goes with lower potency. Turning to `Nc1nc(-c2ccc(NC(=O)CN(CCc3ccccc3)C(=O)c3cccnc3)cc2)cs1` [Example 67], the midpoint of inhibition, the IC50, lay at 350 nM.
